According to patent publication US10766869B2, “Triazoles for the treatment of demyelinating dieases” (Vertex Pharmaceuticals Incorporated, priority 2015, dated 2020):
Read-outs that look alike come from different tables or passages of the source.

Tested on: primary rat mixed cortical cells
Assay: In vitro myelination assay (MBP positive myelin strands, fold myelin pixels above background)
Type: cell-based
Conditions: Rattus norvegicus; for fold induction at 1 µM: 1.0 μM compound; for fold induction at 10 µM: 10.0 μM compound
In short: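 Fourteen-day treatment of primary P1 rat mixed cortical cultures, re-dosed at days 6 and 10, at 1.0 μM and 10.0 μM. MBP immunofluorescence was imaged at 10× and myelin strands quantified by software, normalised to untreated wells as fold above background.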

[1] = relative to baseline of no added compound, read-out: Fold myelin pixels above background, 1.0 μM
[2] = relative to baseline of no added compound, read-out: Fold myelin pixels above background, 10.0 μM
[3] = read-out: Fold myelin pixels above background relative to baseline of no added compound
[4] = relative to baseline of no added compound, read-out: Fold myelin pixels above background

Compound	fold induction at 1 µM [1]	fold induction at 10 µM [2]	fold induction at 1 µM [3]	fold induction at 10 µM [3]	fold induction at 1 µM [4]	fold induction at 10 µM [4]
Fc1cc(Nc2ncn(-c3ccccc3F)n2)cc(N2CCOCC2)c1 [Compound 49, N-(3-fluoro-5-morpholino-phenyl)-1-(2-fluorophenyl)-1,2,4-triazol-3-amine]	≤ 1	10 to 100	–	–	–	–
Cc1cc(Nc2ncn(-c3ccccc3)n2)cc(C2CCN(C3COC3)C2)c1 (stereo not drawn) [Compound 260, N-[3-methyl-5-[1-(oxetan-3-yl)pyrrolidin-3-yl]phenyl]-1-phenyl-1,2,4-triazol-3-amine]	1000 to 10000	≤ 1	–	–	–	–
Cc1cc(Nc2ncn(-c3cc(F)cc(F)c3)n2)cc(N2CC(N3CCOCC3)CC2C)c1 (stereo not drawn) [Compound 920, 1-(3,5-difluorophenyl)-N-[3-methyl-5-(2-methyl-4-morpholino-pyrrolidin-1-yl)phenyl]-1,2,4-triazol-3-amine]	–	–	10 to 100	≤ 1	–	–
Fc1ccc(-n2cnc(Nc3cc(C(F)F)cc(N4CCN(C5COC5)CC4)n3)n2)cc1 [Compound 806, 4-(difluoromethyl)-N-[1-(4-fluorophenyl)-1,2,4-triazol-3-yl]-6-[4-(oxetan-3-yl)piperazin-1-yl]pyridin-2-amine]	–	–	1 to 10	≤ 1	–	–
Cc1cc(Nc2ncn(-c3ccccc3)n2)cc(N2CCC(F)CC2)n1 [Compound 430, 2-(4-fluoro-1-piperidyl)-6-methyl-N-(1-phenyl-1,2,4-triazol-3-yl)pyridin-4-amine]	–	–	–	–	100 to 1000	≤ 1
CCOCCN1CCN(c2cc(C)cc(Nc3ncn(-c4cc(F)cc(F)c4)n3)c2)CC1C (stereo not drawn) [Compound 1063, 1-(3,5-difluorophenyl)-N-[3-[4-(2-ethoxyethyl)-3-methyl-piperazin-1-yl]-5-methyl-phenyl]-1,2,4-triazol-3-amine]	–	–	10 to 100	≤ 1	–	–
CC(=O)OCC(COC(C)=O)N1CCN(c2cc(C)cc(Nc3ncn(-c4cc(F)cc(F)c4)n3)c2F)CC1 [Compound 923, [3-acetoxy-2-[4-[3-[[1-(3,5-difluorophenyl)-1,2,4-triazol-3-yl]amino]-2-fluoro-5-methyl-phenyl]piperazin-1-yl]propyl] acetate]	–	–	10 to 100	1 to 10	–	–
Cc1cc(Nc2ncn(-c3cccc(F)c3)n2)cc(N2CC3(C2)CN(C(C)C)C3)c1 [Compound 1071, 1-(3-fluorophenyl)-N-[3-(2-isopropyl-2,6-diazaspiro[3.3]heptan-6-yl)-5-methyl-phenyl]-1,2,4-triazol-3-amine]	–	–	10 to 100	≤ 1	–	–
Cc1cc(Nc2ncn(-c3cc(F)cc(F)c3)n2)cc(C2(O)CCN(C)C2)c1 (stereo not drawn) [Compound 242, 3-[3-[[1-(3,5-difluorophenyl)-1,2,4-triazol-3-yl]amino]-5-methyl-phenyl]-1-methyl-pyrrolidin-3-ol]	10 to 100	≤ 1	–	–	–	–
Cc1cc(Nc2ncn(-c3cc(F)cc(F)c3)n2)cc(NC2CCN(CCN3CCOCC3)C2)c1 (stereo not drawn) [Compound 880, N3-[1-(3,5-difluorophenyl)-1,2,4-triazol-3-yl]-5-methyl-N1-[1-(2-morpholinoethyl)pyrrolidin-3-yl]benzene-1,3-diamine]	–	–	1 to 10	≤ 1	–	–
CCc1cc(Nc2ncn(-c3cccc(C(F)F)c3)n2)cc(N2CCN(C3COC3)CC2)c1 [Compound 736, 1-[3-(difluoromethyl)phenyl]-N-[3-ethyl-5-[4-(oxetan-3-yl)piperazin-1-yl]phenyl]-1,2,4-triazol-3-amine]	–	–	–	–	10 to 100	≤ 1
Cc1cc(Nc2ncn(-c3cc(F)cc(F)c3)n2)nc(N2CCNCC2)c1 [Compound 529, N-[1-(3,5-difluorophenyl)-1,2,4-triazol-3-yl]-4-methyl-6-piperazin-1-yl-pyridin-2-amine]	–	–	–	–	1 to 10	≤ 1
Fc1cc(F)cc(-n2cnc(Nc3cc(Cl)cc(N4CC(N5CCOCC5)C4)c3)n2)c1 [Compound 723, N-[3-chloro-5-(3-morpholinoazetidin-1-yl)phenyl]-1-(3,5-difluorophenyl)-1,2,4-triazol-3-amine]	–	–	–	–	10 to 100	100 to 1000
Cc1cc(Nc2ncn(-c3cc(F)cc(F)c3)n2)cc(N2CCOC(COCC3CC3)C2)c1 (stereo not drawn) [Compound 1087, N-[3-[2-(cyclopropylmethoxymethyl)morpholin-4-yl]-5-methyl-phenyl]-1-(3,5-difluorophenyl)-1,2,4-triazol-3-amine]	–	–	1 to 10	1 to 10	–	–
CCOc1nccc(-n2cnc(Nc3cc(C)cc(N4CCN(C5COC5)CC4)c3)n2)n1 [Compound 204, 1-(2-ethoxypyrimidin-4-yl)-N-[3-methyl-5-[4-(oxetan-3-yl)piperazin-1-yl]phenyl]-1,2,4-triazol-3-amine]	≤ 1	≤ 1	–	–	–	–
Cc1ccc(-n2cnc(Nc3cc(F)cc(N4CCN(C5COC5)CC4)c3)n2)cc1F [Compound 779, 1-(3-fluoro-4-methyl-phenyl)-N-[3-fluoro-5-[4-(oxetan-3-yl)piperazin-1-yl]phenyl]-1,2,4-triazol-3-amine]	–	–	–	–	1 to 10	1 to 10
c1ccc(-n2cnc(Nc3cc(C4CCOC4)cc(N4CCOCC4)c3)n2)cc1 (stereo not drawn) [Compound 165, N-(3-morpholino-5-tetrahydrofuran-3-yl-phenyl)-1-phenyl-1,2,4-triazol-3-amine]	100 to 1000	10 to 100	–	–	–	–
Cc1cc(Nc2ccn(C)n2)cc(Nc2ncn(-c3ccccc3)n2)c1 [Compound 828, 5-methyl-N3-(1-methylpyrazol-3-yl)-N1-(1-phenyl-1,2,4-triazol-3-yl)benzene-1,3-diamine]	–	–	1 to 10	≤ 1	–	–
Fc1cc(Nc2ncn(-c3ccnc(F)c3)n2)cc(N2CCN(C3COC3)CC2)c1 [Compound 783, N-[3-fluoro-5-[4-(oxetan-3-yl)piperazin-1-yl]phenyl]-1-(2-fluoro-4-pyridyl)-1,2,4-triazol-3-amine]	–	–	–	–	≤ 1	1 to 10
CC(=O)N1CCC(Nc2cc(C)cc(Nc3ncn(-c4ccccc4)n3)c2)CC1 [Compound 402, 1-[4-[3-methyl-5-[(1-phenyl-1,2,4-triazol-3-yl)amino]anilino]-1-piperidyl]ethanone]	–	–	–	–	100 to 1000	10 to 100
Cc1cc(Nc2ncn(-c3cc(F)cc(F)c3)n2)cc(N2CCN(C3COC3)CC2)n1 [Compound 1, N-[1-(3,5-difluorophenyl)-1,2,4-triazol-3-yl]-2-methyl-6-[4-(oxetan-3-yl)piperazin-1-yl]pyridin-4-amine]	1000 to 10000	100 to 1000	–	–	–	–
Cc1cc(Nc2ncn(-c3cc(F)cc(F)c3)n2)cc(N2CCOCC2)c1 [Compound 374, 1-(3,5-difluorophenyl)-N-(3-methyl-5-morpholino-phenyl)-1,2,4-triazol-3-amine]	100 to 1000	100 to 1000	–	–	–	–
FC(F)c1cccc(-n2cnc(Nc3cc(C(F)F)cc(N4CCN(C5COC5)CC4)n3)n2)c1 [Compound 718, 4-(difluoromethyl)-N-[1-[3-(difluoromethyl)phenyl]-1,2,4-triazol-3-yl]-6-[4-(oxetan-3-yl)piperazin-1-yl]pyridin-2-amine]	–	–	–	–	10 to 100	100 to 1000
COCCCN1CCN(c2cc(C)cc(Nc3ncn(-c4cc(F)cc(F)c4)n3)c2)CC1 [Compound 850, 1-(3,5-difluorophenyl)-N-[3-[4-(3-methoxypropyl)piperazin-1-yl]-5-methyl-phenyl]-1,2,4-triazol-3-amine]	–	–	10 to 100	≤ 1	–	–
CCc1cc(F)cc(-n2cnc(Nc3cc(C)cc(N4CCN(C)CC4)c3)n2)c1 [Compound 255, 1-(3-ethyl-5-fluoro-phenyl)-N-[3-methyl-5-(4-methylpiperazin-1-yl)phenyl]-1,2,4-triazol-3-amine]	100 to 1000	100 to 1000	–	–	–	–
Cc1cc(Nc2ncn(-c3cc(F)cc(F)c3)n2)cc(N2CC(C(=O)N3CCCC3)C2)c1 [Compound 773, [1-[3-[[1-(3,5-difluorophenyl)-1,2,4-triazol-3-yl]amino]-5-methyl-phenyl]azetidin-3-yl]-pyrrolidin-1-yl-methanone]	–	–	–	–	10 to 100	≤ 1
Cc1cc(Nc2ncn(-c3cc(F)cc(F)c3)n2)cc(N2CCC(CN3CCOCC3)CC2)c1 [Compound 984, 1-(3,5-difluorophenyl)-N-[3-methyl-5-[4-(morpholinomethyl)-1-piperidyl]phenyl]-1,2,4-triazol-3-amine]	–	–	10 to 100	≤ 1	–	–
Cc1cc(Nc2ncn(-c3cccnc3)n2)cc(N2CCN(C3COC3)CC2)c1 [Compound 275, N-[3-methyl-5-[4-(oxetan-3-yl)piperazin-1-yl]phenyl]-1-(3-pyridyl)-1,2,4-triazol-3-amine]	10 to 100	100 to 1000	–	–	–	–
CCOCC1CCCN1c1cc(F)cc(-n2cnc(Nc3cc(C)cc(N4CCN(C5COC5)CC4)c3)n2)c1 (stereo not drawn) [Compound 41, 1-[3-[2-(ethoxymethyl)pyrrolidin-1-yl]-5-fluoro-phenyl]-N-[3-methyl-5-[4-(oxetan-3-yl)piperazin-1-yl]phenyl]-1,2,4-triazol-3-amine]	10 to 100	≤ 1	–	–	–	–
Cc1cc(Nc2ncn(-c3cccc(C(F)F)c3)n2)cc(N2CC(N3CCOCC3)C2)c1 [Compound 595, 1-[3-(difluoromethyl)phenyl]-N-[3-methyl-5-(3-morpholinoazetidin-1-yl)phenyl]-1,2,4-triazol-3-amine]	–	–	–	–	1 to 10	≤ 1
